Assay results: the supplement of paper PMC11061612

Legend:
Test in all cases: combination Emax (second highest fraction inhibited in the dose matrix, 72 h); higher = more inhibition; extreme values may be limits of the assay
[1] = system: CHSA8926 (Chondrosarcoma)
Outline: (§1)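 Cell lines grown in DMEM/F12 or RPMI with 10% FBS were plated in 1536-well plates and held 24 hours at 37°C, 5% CO2 before 72 hours of exposure to two-drug dose matrices, with DMSO typically at 0.2%. CellTiter-Glo 2.0 luminescence gave viability, which was converted to inhibition. Vehicle wells were set to 0 and blank wells to 1. Combination Emax is the second-highest inhibition in the matrix, and Bliss excess is the observed combination effect minus the expected EA + EB − EA·EB, where EA and EB are the single-agent effects.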

[2] = system: ESO51 (Esophageal Adenocarcinoma)
Outline: as §1

[3] = system: H9 (T-Cell Non-Hodgkin's Lymphoma)
Outline: as §1

[4] = system: HCC1187 (Breast Carcinoma)
Outline: as §1

[5] = system: HCC1419 (Breast Carcinoma)
Outline: as §1

[6] = system: IM-95 (Gastric Carcinoma)
Outline: as §1

[7] = system: JHH-4 (Hepatocellular Carcinoma)
Outline: as §1

[8] = system: KP-3 (Pancreatic Carcinoma)
Outline: as §1

[9] = system: KU812 (Chronic Myelogenous Leukemia)
Outline: as §1

[10] = system: KY821 (Acute Myeloid Leukemia)
Outline: as §1

[11] = system: KYSE-270 (Esophageal Squamous Cell Carcinoma)
Outline: as §1

[12] = system: NCI-H520 (Squamous Cell Lung Carcinoma)
Outline: as §1

RD (Rhabdomyosarcoma) = system: RD (Rhabdomyosarcoma)
Outline: as §1

[13] = system: RPMI-8226 (Plasma Cell Myeloma)
Outline: as §1

SJSA-1 (Osteosarcoma) = system: SJSA-1 (Osteosarcoma)
Outline: as §1

[14] = system: SK-GT-4 (Esophageal Adenocarcinoma)
Outline: as §1

[15] = system: SNU-398 (Hepatocellular Carcinoma)
Outline: as §1

[16] = system: SUP-B15 (B-Lymphoblastic Leukemia)
Outline: as §1

[17] = system: T-T (Esophageal Squamous Cell Carcinoma)
Outline: as §1

[18] = system: VMRC-RCZ (Kidney Carcinoma)
Outline: as §1

Row | Structure (SMILES) | combination Emax [1] | combination Emax [2] | combination Emax [3] | combination Emax [4] | combination Emax [5] | combination Emax [6] | combination Emax [7] | combination Emax [8] | combination Emax [9] | combination Emax [10] | combination Emax [11] | combination Emax [12] | combination Emax (RD (Rhabdomyosarcoma)) | combination Emax [13] | combination Emax (SJSA-1 (Osteosarcoma)) | combination Emax [14] | combination Emax [15] | combination Emax [16] | combination Emax [17] | combination Emax [18]
1 | CN(CCO)CC[C@H](CSc1ccccc1)Nc1ccc(S(=O)(=O)NC(=O)c2ccc(N3CCC([C@@H](O)c4ccccc4-c4ccc(Cl)cc4)CC3)cc2)cc1S(=O)(=O)C(F)(F)F [AZD4320] + Cn1cnc2c(F)c(Nc3ccc(Br)cc3Cl)c(C(=O)NOCCO)cc21 [Selumetinib] (first compound max 1 µM, 7x7, partner max 3 µM) | 0.643 | 0.476 | 1 | 0.377 | 0.336 | 0.876 | 0.326 | 0.198 | 0.966 | 1 | 0.389 | 0.203 | 0.904 | 0.965 | 0.429 | 0.624 | 0.38 | 1 | 0.325 | 0.238
2 | COc1nnc2ccc(N3CCC(c4ccc(OCCN5CCN(C)C(=O)[C@H]5C)cc4)CC3)nn12 [AZD5153] + C=CCn1c(=O)c2cnc(Nc3ccc(N4CCN(C)CC4)cc3)nc2n1-c1cccc(C(C)(C)O)n1 [AZD1775] (first compound max 1 µM, partner max 1 µM) | 0.735 | 0.723 | 1 | 0.792 | 0.346 | 0.5 | 0.56 | 0.4 | 0.931 | 1 | 0.656 | 0.811 | 0.774 | 0.845 | 0.589 | 0.6 | 0.818 | 0.962 | 0.615 | 0.489
3 | COc1nnc2ccc(N3CCC(c4ccc(OCCN5CCN(C)C(=O)[C@H]5C)cc4)CC3)nn12 [AZD5153] + CC1(C)CCC(CN2CCN(c3ccc(C(=O)NS(=O)(=O)c4ccc(NCC5CCOCC5)c([N+](=O)[O-])c4)c(Oc4cnc5[nH]ccc5c4)c3)CC2)=C(c2ccc(Cl)cc2)C1 [Venetoclax] (first compound max 1 µM, 7x7, partner max 1 µM) | 0.509 | 0.581 | 1 | 0.24 | 0.389 | 0.333 | 0.392 | 0.21 | 0.924 | 1 | 0.547 | 0.569 | 0.533 | 0.8 | 0.546 | 0.484 | 0.447 | 1 | 0.55 | 0.258
4 | COc1nnc2ccc(N3CCC(c4ccc(OCCN5CCN(C)C(=O)[C@H]5C)cc4)CC3)nn12 [AZD5153] + CCN(CCO)CCCOc1ccc2c(Nc3cc(CC(=O)Nc4cccc(F)c4)[nH]n3)ncnc2c1 [AZD2811] (first compound max 1 µM, 7x7, partner max 1 µM) | 0.537 | 0.639 | 1 | 0.912 | 0.355 | 0.336 | 0.367 | 0.281 | 0.935 | 1 | 0.439 | 0.691 | 0.605 | 0.8 | 0.64 | 0.538 | 0.628 | 1 | 0.582 | 0.367
5 | COc1nnc2ccc(N3CCC(c4ccc(OCCN5CCN(C)C(=O)[C@H]5C)cc4)CC3)nn12 [AZD5153] + C[C@@H]1COCCN1C2=NC(=NC(=C2)C3(CC3)[S@](=N)(=O)C)C4=C5C=CNC5=NC=C4 [AZD6738] (first compound max 1 µM, 7x7, partner max 10 µM) | 0.632 | 0.823 | 1 | 0.696 | 0.295 | 0.44 | 0.714 | 0.409 | 0.963 | 1 | 0.57 | 0.869 | 0.748 | 0.905 | 0.634 | 0.663 | 0.786 | 1 | 0.587 | 0.58
6 | COc1nnc2ccc(N3CCC(c4ccc(OCCN5CCN(C)C(=O)[C@H]5C)cc4)CC3)nn12 [AZD5153] + Cc1c2c(nn1C)CSCc1cc(n(C)n1)CSc1cc(c3ccccc3c1)OCCCc1c(C(=O)O)n(C)c3c-2c(Cl)ccc13 [AZD5991] (first compound max 1 µM, 7x7, partner max 1 µM) | 0.651 | 0.708 | 1 | 1 | 0.567 | 0.798 | 0.379 | 0.275 | 0.987 | 1 | 0.942 | 0.744 | 0.808 | 1 | 0.553 | 0.53 | 1 | 1 | 0.958 | 0.323
7 | COc1nnc2ccc(N3CCC(c4ccc(OCCN5CCN(C)C(=O)[C@H]5C)cc4)CC3)nn12 [AZD5153] + Cn1cnc2c(F)c(Nc3ccc(Br)cc3Cl)c(C(=O)NOCCO)cc21 [Selumetinib] (first compound max 1 µM, 7x7, partner max 10 µM) | 0.442 | 0.901 | 1 | 0.383 | 0.355 | 0.564 | 0.906 | 0.338 | 0.994 | 1 | 0.58 | 0.61 | 0.77 | 0.913 | 0.576 | 0.651 | 0.556 | 1 | 0.633 | 0.308
8 | Cc1c2c(nn1C)CSCc1cc(n(C)n1)CSc1cc(c3ccccc3c1)OCCCc1c(C(=O)O)n(C)c3c-2c(Cl)ccc13 [AZD5991] + C1CN(CCC1(C(=O)N[C@@H](CCO)C2=CC=C(C=C2)Cl)N)C3=NC=NC4=C3C=CN4 [Capivasertib] (first compound max 1 µM, 7x7, partner max 3 µM) | 0.597 | 0.0827 | 0.847 | 1 | 0.555 | 0.784 | 0.211 | 0.135 | 0.858 | 1 | 0.505 | 0.561 | 0.535 | 0.976 | 0.374 | 0.377 | 1 | 1 | 0.922 | 0.336
9 | Cc1c2c(nn1C)CSCc1cc(n(C)n1)CSc1cc(c3ccccc3c1)OCCCc1c(C(=O)O)n(C)c3c-2c(Cl)ccc13 [AZD5991] + CC1(C)CCC(CN2CCN(c3ccc(C(=O)NS(=O)(=O)c4ccc(NCC5CCOCC5)c([N+](=O)[O-])c4)c(Oc4cnc5[nH]ccc5c4)c3)CC2)=C(c2ccc(Cl)cc2)C1 [Venetoclax] (first compound max 1 µM, 7x7, partner max 1 µM) | 0.506 | 0.187 | 0.693 | 0.997 | 0.275 | 0.837 | 0.265 | 0.129 | 0.902 | 1 | 0.822 | 0.201 | 0.553 | 1 | 0.296 | 0.2 | 1 | 1 | 0.908 | 0.21
10 | Cc1c2c(nn1C)CSCc1cc(n(C)n1)CSc1cc(c3ccccc3c1)OCCCc1c(C(=O)O)n(C)c3c-2c(Cl)ccc13 [AZD5991] + CCN(CCO)CCCOc1ccc2c(Nc3cc(CC(=O)Nc4cccc(F)c4)[nH]n3)ncnc2c1 [AZD2811] (first compound max 1 µM, 7x7, partner max 1 µM) | 0.652 | 0.195 | 0.959 | 1 | 0.308 | 0.875 | 0.315 | 0.186 | 0.851 | 1 | 0.926 | 0.599 | 0.546 | 0.965 | 0.292 | 0.26 | 0.991 | 1 | 0.95 | 0.221
11 | Cc1c2c(nn1C)CSCc1cc(n(C)n1)CSc1cc(c3ccccc3c1)OCCCc1c(C(=O)O)n(C)c3c-2c(Cl)ccc13 [AZD5991] + C[C@@H](Nc1cc(F)cc(F)c1)c1cc(C(=O)N(C)C)cc2c(=O)cc(N3CCOCC3)oc12 [AZD8186] (first compound max 1 µM, 7x7, partner max 3 µM) | 0.797 | 0.217 | 0.574 | 0.993 | 0.344 | 0.817 | 0.271 | 0.124 | 0.862 | 1 | 0.622 | 0.644 | 0.521 | 0.949 | 0.34 | 0.288 | 0.995 | 1 | 0.915 | 0.287
12 | Cc1c2c(nn1C)CSCc1cc(n(C)n1)CSc1cc(c3ccccc3c1)OCCCc1c(C(=O)O)n(C)c3c-2c(Cl)ccc13 [AZD5991] + Cc1cc2ncnn2cc1Nc1ncc2c(n1)n(C1CCOCC1)c(=O)n2C [AZD7648] (first compound max 1 µM, 7x7, partner max 10 µM) | 0.515 | 0.127 | 0.722 | 1 | 0.501 | 0.788 | 0.262 | 0.168 | 0.848 | 1 | 0.508 | 0.567 | 0.521 | 0.957 | 0.361 | 0.327 | 1 | 1 | 0.926 | 0.191
